Data as given in patent publication US20230132823A1, “BI-FUNCTIONAL COMPOUNDS AND METHODS FOR TARGETED UBIQUITINATION OF ANDROGEN RECEPTOR” (MONTELINO THERAPEUTICS, INC., priority 2020, published 2023).

Key:
AR-V7 [1] = target: T1, AR-V7 (Homo sapiens, UniProt P10275); assay: Immunoblot of AR-V7 in harvested xenograft tumors; type: in vivo; parameters: endogenous in cells; host or cells: 22Rv1 (also VCaP, LNCaP and SAT-resistant sublines)
T1 sequence (P10275 1-644 isoform P10275-3): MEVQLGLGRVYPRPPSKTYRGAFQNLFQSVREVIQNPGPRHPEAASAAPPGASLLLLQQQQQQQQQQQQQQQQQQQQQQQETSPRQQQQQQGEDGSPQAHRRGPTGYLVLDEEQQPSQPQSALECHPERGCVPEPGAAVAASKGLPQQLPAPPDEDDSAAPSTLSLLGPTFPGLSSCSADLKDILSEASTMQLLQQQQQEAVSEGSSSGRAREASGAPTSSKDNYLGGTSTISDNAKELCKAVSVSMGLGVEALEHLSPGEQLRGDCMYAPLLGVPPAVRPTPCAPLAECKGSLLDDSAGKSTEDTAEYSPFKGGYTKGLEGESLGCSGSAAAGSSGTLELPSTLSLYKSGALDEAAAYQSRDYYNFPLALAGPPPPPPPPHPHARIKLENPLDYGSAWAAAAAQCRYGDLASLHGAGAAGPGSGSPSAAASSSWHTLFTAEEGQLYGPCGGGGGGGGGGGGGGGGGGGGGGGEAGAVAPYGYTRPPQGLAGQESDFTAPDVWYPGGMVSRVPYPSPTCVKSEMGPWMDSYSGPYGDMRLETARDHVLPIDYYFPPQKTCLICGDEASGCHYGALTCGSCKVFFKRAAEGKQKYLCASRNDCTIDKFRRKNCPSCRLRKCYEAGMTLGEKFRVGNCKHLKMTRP
Protocol: Immunoblot Analysis. CaP cells are collected and lysed with the lysis buffer (20 mM Tris-HCl (pH 7.5), 150 mM NaCl, 1 mM Na2EDTA, 1 mM EGTA, 1% Triton, 2.5 mM sodium pyrophosphate, 1 mM beta-glycerophosphate, 1 mM Na3VO4, and 1 μg/ml leupeptin) containing 1 mM phenylmethylsulfonyl fluoride (PMSF). Cell lysates are then centrifuged and protein in the supernatant is quantified. After separating 25-50 μg of protein using SDS-PAGE, samples are incubated with AR-V7, GR, PR, ERα, AR-FL, ubiquitin, or β-actin antibodies. For AR-V7, AR-FL, PR, GR, and ERα immunoblots, primary antibody is diluted 1:1000 in 5% skim milk. For the β-actin immunoblot, 1:10000 diluted primary antibody is used. […] Following the incubation with appropriate secondary antibody, immunoblots are analyzed using SuperSignal West Femto Maximum Sensitivity Substrate (ThermoFisher).
Mice are then treated daily with Test Compound with or without enzalutamide via the indicated route (intratumoral, intraperitoneal, or oral) for five to six weeks. At the end of the study, all animals are sacrificed and tumors are harvested and analyzed. Statistical significance is calculated using the Student's t-test for paired comparisons of experimental groups and, where appropriate, by Wilcoxon rank sum test, and by 2-way ANOVA. […]
The in vivo effects of the Compound of Example 16 are assessed in mice using enzalutamide-resistant CaP xenografts. […]

AR-FL = target: T2, AR-FL (Homo sapiens, UniProt P10275, DUP590-628/H875Y); assay: Immunoblot of AR-FL polyubiquitination in 22Rv1 pretreated with MG132; type: cell-based; parameters: decreased AR-V7 and AR-FL protein expression levels in 22Rv1 cells; endogenous in cells; host or cells: 22Rv1; settings: 22Rv1 pretreated with MG132 two hours; compound 1 μM
T2 sequence (P10275 with tags, fused parts or gaps DUP590-628/H875Y): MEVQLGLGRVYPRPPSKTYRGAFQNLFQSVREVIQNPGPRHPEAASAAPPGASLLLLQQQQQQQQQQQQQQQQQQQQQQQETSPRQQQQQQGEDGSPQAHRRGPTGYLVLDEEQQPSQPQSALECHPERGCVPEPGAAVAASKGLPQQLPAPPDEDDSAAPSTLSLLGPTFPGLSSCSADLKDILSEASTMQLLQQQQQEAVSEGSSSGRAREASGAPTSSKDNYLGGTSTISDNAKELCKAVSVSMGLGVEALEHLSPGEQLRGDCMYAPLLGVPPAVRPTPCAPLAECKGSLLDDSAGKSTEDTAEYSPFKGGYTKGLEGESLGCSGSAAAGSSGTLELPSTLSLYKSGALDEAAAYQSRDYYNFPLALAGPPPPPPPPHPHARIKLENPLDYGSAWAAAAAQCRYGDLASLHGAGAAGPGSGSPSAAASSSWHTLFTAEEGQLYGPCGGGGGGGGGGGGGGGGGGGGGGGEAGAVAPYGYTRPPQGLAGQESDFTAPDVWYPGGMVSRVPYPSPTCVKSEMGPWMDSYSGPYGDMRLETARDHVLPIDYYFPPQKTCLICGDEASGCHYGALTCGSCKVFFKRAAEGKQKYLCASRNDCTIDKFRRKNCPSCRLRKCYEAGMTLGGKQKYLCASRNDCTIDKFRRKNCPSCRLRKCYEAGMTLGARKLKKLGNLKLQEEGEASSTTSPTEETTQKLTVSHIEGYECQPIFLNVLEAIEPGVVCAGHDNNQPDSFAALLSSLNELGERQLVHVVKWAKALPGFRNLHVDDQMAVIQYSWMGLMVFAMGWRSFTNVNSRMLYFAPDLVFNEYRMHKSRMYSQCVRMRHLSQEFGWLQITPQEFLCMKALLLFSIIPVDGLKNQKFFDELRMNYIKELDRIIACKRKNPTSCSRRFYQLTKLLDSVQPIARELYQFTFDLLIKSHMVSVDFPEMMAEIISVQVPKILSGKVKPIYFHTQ
Protocol: (§1) Immunoblot Analysis. CaP cells are collected and lysed with the lysis buffer (20 mM Tris-HCl (pH 7.5), 150 mM NaCl, 1 mM Na2EDTA, 1 mM EGTA, 1% Triton, 2.5 mM sodium pyrophosphate, 1 mM beta-glycerophosphate, 1 mM Na3VO4, and 1 μg/ml leupeptin) containing 1 mM phenylmethylsulfonyl fluoride (PMSF). Cell lysates are then centrifuged and protein in the supernatant is quantified. After separating 25-50 μg of protein using SDS-PAGE, samples are incubated with AR-V7, GR, PR, ERα, AR-FL, ubiquitin, or β-actin antibodies. For AR-V7, AR-FL, PR, GR, and ERα immunoblots, primary antibody is diluted 1:1000 in 5% skim milk. For the β-actin immunoblot, 1:10000 diluted primary antibody is used. All membranes are incubated overnight at 4° C. Following the incubation with appropriate secondary antibody, immunoblots are analyzed using SuperSignal West Femto Maximum Sensitivity Substrate (ThermoFisher).
(§2) To determine the ubiquitination status of AR proteins, 22Rv1 is pretreated with MG132 for two hours prior to adding Compound of Example 16 (at 1 μM).

AR-V7 [2] = target: T1, AR-V7; assay: Immunoblot of AR-V7 polyubiquitination in 22Rv1 pretreated with MG132; type: cell-based; parameters: endogenous in cells; host or cells: 22Rv1; settings: 22Rv1 pretreated with MG132 two hours; compound 1 μM
Protocol: as §1, §2

VCaP = VCaP cell proliferation; type: cell-based, human; settings: androgen-responsive cell line; 1 μM

AR-V7 protein expression in Enz^R CaP tumors (AR-V7 [1]; IP administration): decreased
AR-V7 protein level in treated tumors (AR-V7 [1]; intratumoral, 22Rv1-Enz^R xenograft, end of study): significant decrease
time of detection of AR-FL polyubiquitination after treatment (AR-FL): 24 h
start of polyubiquitination of AR-V7 after treatment (AR-V7 [2]): 6 h
Structure (SMILES): Cc1ncsc1-c1ccc([C@H](C)NC(=O)[C@@H]2C[C@@H](O)CN2C(=O)[C@@H](NC(=O)CCCCNC(=O)COc2c(-c3csc(N4CCOCC4)n3)ccc(F)c2F)C(C)(C)C)cc1 [Example 16, (2S,4R)-1-((S)-2-(5-(2-(2,3-difluoro-6-(2-morpholinothiazol-4-yl)phenoxy)acetamido)pentanamido)-3,3-dimethylbutanoyl)-4-hydroxy-N-((S)-1-(4-(4-methylthiazol-5-yl)phenyl)ethyl)pyrrolidine-2-carboxamide]
effect on proliferation of VCaP (VCaP): inhibits the proliferation
